Results published in PubChem BioAssay (NCI).
Values joined by “and” are separate entries in the source; they are usually repeats but may differ in a detail not shown here. Equal entries are not always repeated.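 Exposure lasted 48 hours, with cells grown in 96-well plates and compounds tested at five concentrations. At the GI50, growth is halved. TGI marks complete inhibition of growth.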

Experiments:
Assay in all cases: inhibition of tumour cell growth, NCI panel, 48 h
[1] = system: RPMI-8226 leukemia
[2] = system: CAKI-1 renal
[3] = system: NCI-H460 lung
[4] = system: HOP-62 NSCLC
[5] = system: HS 578T breast
[6] = system: LOX IMVI melanoma
[7] = system: OVCAR-8 ovarian
[8] = system: SF-539 CNS
[9] = system: K-562 leukemia
[10] = system: SNB-19 CNS

SMILES | GI50 [1] | TGI [1] | GI50 [2] | TGI [2] | GI50 [3] | TGI [3] | GI50 [4] | TGI [4] | GI50 [5] | TGI [5] | GI50 [6] | TGI [6] | GI50 [7] | TGI [7] | GI50 [8] | TGI [8] | GI50 [9] | TGI [9] | GI50 [10] | TGI [10]
COc1c(C)cnc(Cn2cnc3c(Cl)nc(N)nc32)c1C | 0.333 µM | > 100 µM | 0.397 µM | > 100 µM | 0.0974 µM | > 100 µM | 0.405 µM | > 100 µM | 3.53 µM | > 100 µM | 0.29 µM | 4.05 µM | 0.323 µM | > 100 µM | 0.605 µM | > 100 µM | 0.187 µM | > 100 µM | 0.48 µM | > 100 µM
O=C(/C=C/CN1CCCCC1)Nc1cc2c(Nc3ccc(F)c(Cl)c3F)ncnc2cc1OCCOC(F)F | 1.01 µM | 3.94 µM | < 0.0151 µM | 1.44 µM | 2.01 µM | 11 µM | 1.64 µM | 7.04 µM | 0.873 µM | 6.05 µM | 1.22 µM | 2.59 µM | 0.805 µM | 10.3 µM | 1.12 µM | 3.56 µM | 0.715 µM | 8.12 µM | 1.94 µM | 13.5 µM
COc1cc2c(c(OC)c1OC)-c1c(c3ccc([N+](=O)[O-])cc3c(=O)n1CCCN=[N+]=[N-])C2=O | > 100 µM | > 100 µM | 50.3 µM | > 100 µM | 12.3 µM | > 100 µM | 15.4 µM | 38.1 µM | 12.2 µM | > 100 µM | 28.5 µM | > 100 µM | 13.6 µM | 68.8 µM | 13.5 µM | 43.1 µM | > 100 µM | > 100 µM | 29.7 µM | 98.3 µM
Nc1nc(N)c2nn(-c3ccc(C(=O)O)cc3)nc2n1 | – | > 100 µM | – | > 100 µM | – | > 100 µM | – | > 100 µM | – | > 100 µM | – | > 100 µM | – | > 100 µM | – | > 100 µM | – | > 100 µM | – | > 100 µM
CC(=O)OC1C(OC/C2=C/C3[C@@H](C(C)C)CC=C(C)[C@@H]3CC(OC(=O)/C=C/c3cn(C)cn3)[C@]3(C)C=C[C@@]2(O)O3)OCC(O)C1O (stereo partly specified) | 0.0244 µM | > 50 µM | 0.196 µM | > 13.2 µM | 0.00928 µM | – | 0.0246 µM | – | 0.00831 µM | 0.035 µM | 0.0234 µM | > 50 µM | 0.0443 µM | > 50 µM | 0.0123 µM | 0.0598 µM | 0.0157 µM | > 50 µM | 0.0364 µM | > 50 µM
O=C1/C(=C/c2ccc([N+](=O)[O-])s2)Oc2ccc(Cl)cc21 | 0.298 µM | 0.97 µM | 2.05 µM | 6.68 µM | 0.675 µM | 2.18 µM | 0.775 µM | 3 µM | 0.372 µM | > 100 µM | 0.239 µM | 0.598 µM | 0.33 µM | 4.91 µM | 0.219 µM | 0.583 µM | 0.133 µM | 0.909 µM | 0.512 µM | 1.55 µM
CCCCCCn1c(=N)n(CC(O)COc2cccc(C)c2)c2ccccc21 (stereo unspecified) | 1.98 µM | 4.56 µM | 2.89 µM | 10.6 µM | 1.96 µM | 3.88 µM | 2.14 µM | 3.88 µM | 2.63 µM | 8.27 µM | 1.82 µM | 3.44 µM | 2.21 µM | 4.74 µM | 2.2 µM | 4.43 µM | 2.07 µM | 5.28 µM | 4.94 µM | 20 µM
C[CH2][Ge]1([CH2]C)[CH2]CC2(CCN(CCCN(C)C)C2)C[CH2]1 | 0.234 µM and 1.47 µM | 0.976 µM and 2.52 µM | 1.61 µM and 3.04 µM | 3.31 µM and 8.49 µM | 1.44 µM and 2.53 µM | 3.05 µM and 4.6 µM | 0.949 µM and 4.87 µM | 1.89 µM and 9.25 µM | 1.57 µM | 3.3 µM | – | – | 1.7 µM and 1.25 µM | 4.05 µM and 1.73 µM | 1.78 µM and 1.71 µM | 3.54 µM and 3.34 µM | 0.237 µM and 1.11 µM | 2.36 µM and 5.13 µM | 2.21 µM and 4.46 µM | 5.57 µM and 9.89 µM
CCCCCCCCCCCCOC1C(C(COC2OC(C(O)CO)C3OC(C)(C)OC23)OC(=O)Nc2ccc([N+](=O)[O-])cc2)OC2OC(C)(C)OC21 (stereo unspecified) | 2.7 µM | 7.2 µM | 2.55 µM | 7.28 µM | 3.74 µM | 13.5 µM | 1.95 µM | 3.8 µM | 1.88 µM | 3.74 µM | 2 µM | 3.79 µM | 3.59 µM | 14.5 µM | 4.15 µM | 14.7 µM | 3.87 µM | 16.8 µM | 9.43 µM | 21.8 µM
COC(=O)c1cc(CNCCc2c[nH]c3ccccc23)on1 | – | > 100 µM | – | > 100 µM | – | > 100 µM | – | > 100 µM | – | > 100 µM | – | > 100 µM | – | > 100 µM | – | > 100 µM | – | > 100 µM | – | > 100 µM
COc1ccc(N2CCN(CC(=O)N3CCN(c4nnc(-c5ccc(Cl)cc5)c(-c5ccc(Cl)cc5)n4)CC3)CC2)cc1 | 6.05 µM | > 100 µM | 16.6 µM | 82.7 µM | 7 µM | > 100 µM | > 100 µM | > 100 µM | > 100 µM | > 100 µM | 7.76 µM | > 100 µM | 22.1 µM | > 100 µM | 3.66 µM | 17.3 µM | 5.8 µM | > 100 µM | > 100 µM | > 100 µM
N#Cc1ccccc1C#C/C=C\C#Cc1cnccn1 | 2.71 µM | > 21.5 µM | 6.95 µM | > 23.4 µM | 39.4 µM | > 100 µM | 29.3 µM | > 64.6 µM | 27.5 µM | > 93.1 µM | > 21.1 µM | > 60.9 µM | 33.9 µM | 98.4 µM | 9.5 µM | 46.2 µM | 4.73 µM | > 100 µM | 30.2 µM | > 89.4 µM
